The values that follow come from ChEMBL document CHEMBL3739277, “Design, synthesis, and antibacterial evaluation of novel azolylthioether quinolones as MRSA DNA intercalators” (2015).

Converted amounts (≈) assume the structure as drawn. The source made the active and inactive calls. No cut-off for these calls is given here.

In one experiment the test system is Saccharomyces cerevisiae. Briefly: Antifungal activity against Saccharomyces cerevisiae ATCC9763 assessed as growth inhibition incubated at 35 degC for 24 hrs by micro broth dilution method. Format: functional. Particulars: ATCC9763, 24 h.
Experiment [1] relates to Staphylococcus aureus. Briefly: Antibacterial activity against methicillin resistant Staphylococcus aureus N315 assessed as growth inhibition incubated at 37 degC for 24 hrs by micro broth dilution method. Particulars: N315, 24 h. It counts as functional.
Experiment [2] is described as follows: Binding affinity to Cu2+ ion assessed as 1:1 compound-Cu2+ complex formation by fluorescence spectroscopy.
A further experiment relates to Bacillus subtilis. Briefly: Antibacterial activity against Bacillus subtilis ATCC6633 assessed as growth inhibition incubated at 37 degC for 24 hrs by micro broth dilution method. Format: functional. The following applies: ATCC6633, 24 h.
The subject of the next experiment is Aspergillus flavus. Nature of the experiment: Antifungal activity against Aspergillus flavus ATCC204304 assessed as growth inhibition incubated at 35 degC for 24 hrs by micro broth dilution method. It counts as functional. The following applies: ATCC204304, 24 h.
A further experiment concerns Micrococcus luteus. Nature of the experiment: Antibacterial activity against Micrococcus luteus ATCC4698 assessed as growth inhibition incubated at 37 degC for 24 hrs by micro broth dilution method. Format: functional. The following applies: ATCC4698, 24 h.
Experiment [3] has as its system Pseudomonas aeruginosa. Briefly: Potency index, ratio of clinafloxacin MIC to compound MIC for Pseudomonas aeruginosa ATCC27853. It counts as functional.
In experiment [4] the test system is Staphylococcus aureus. Briefly: Antibacterial activity against Staphylococcus aureus ATCC25923 assessed as growth inhibition incubated at 37 degC for 24 hrs by micro broth dilution method. Particulars: ATCC25923, 24 h. Format: functional.
Experiment [5] is described as follows: Antibacterial activity against Bacillus proteus ATCC13315 assessed as growth inhibition incubated at 37 degC for 24 hrs by micro broth dilution method. It counts as functional. The following applies: ATCC13315, 24 h.
The next experiment relates to Escherichia coli. Nature of the experiment: Antibacterial activity against Escherichia coli JM109 assessed as growth inhibition incubated at 37 degC for 24 hrs by micro broth dilution method. Format: functional. Particulars: JM109, 24 h.
In experiment [6] the test system is Staphylococcus aureus. Briefly: Binding affinity to methicillin-resistant Staphylococcus aureus DNA assessed as induction of DNA intercalation by UV-visible spectroscopy.
Experiment [7] can be described thus: Antifungal activity against Candida mycoderma ATCC9888 assessed as growth inhibition incubated at 35 degC for 24 hrs by micro broth dilution method. Particulars: Kregervanrija fluxuum. It counts as functional.
Experiment [8] can be described thus: Antibacterial activity against Eberthella typhosa ATCC14028 assessed as growth inhibition incubated at 37 degC for 24 hrs by micro broth dilution method. It counts as functional. Particulars: ATCC14028, 24 h.
Experiment [9] has as its system Staphylococcus aureus. Nature of the experiment: Binding affinity to methicillin-resistant Staphylococcus aureus DNA assessed as induction of DNA intercalation by measuring as 1:1 compound-DNA complex formation in presence of Cu2+ ions by fluorescence spectroscopy.
Another experiment deals with Candida albicans. Nature of the experiment: Antifungal activity against Candida albicans ATCC10231 assessed as growth inhibition incubated at 35 degC for 24 hrs by micro broth dilution method. Particulars: ATCC10231, 24 h. It counts as functional.
The test system of experiment [10] is Pseudomonas aeruginosa. Briefly: Antibacterial activity against Pseudomonas aeruginosa ATCC27853 assessed as growth inhibition incubated at 37 degC for 24 hrs by micro broth dilution method. The following applies: ATCC27853, 24 h. It counts as functional.
Another experiment has as its system Cyberlindnera jadinii. Nature of the experiment: Antifungal activity against Candida utilis ATCC9950 assessed as growth inhibition incubated at 35 degC for 24 hrs by micro broth dilution method. Format: functional. The following applies: Williopsis jadinii, ATCC9950, 24 h.
The test system of experiment [11] is Staphylococcus aureus. Nature of the experiment: Binding affinity to methicillin-resistant Staphylococcus aureus DNA assessed as induction of DNA intercalation in presence of potassium iodide by fluorescence spectroscopy based Stern-Volmer plot.
In experiment [12] the test system is Pseudomonas aeruginosa. Briefly: Potency index, ratio of chloramphenicol MIC to compound MIC for Pseudomonas aeruginosa ATCC27853. It counts as functional.

In the case of `Cn1ccnc1SCC(O)CNC1CCN(c2c(F)cc3c(=O)c(C(=O)O)cn(C4CC4)c3c2Cl)C1` (configuration not stated), the MIC80 in the experiment with Saccharomyces cerevisiae was found to be 16 µg/mL (≈ 29.8 µM); in the experiment with Aspergillus flavus it was 32 µg/mL (≈ 59.7 µM); in [7] it was 1 µg/mL (≈ 1.87 µM); in the experiment on Candida albicans, 0.5 µg/mL (≈ 0.933 µM); in the experiment on Cyberlindnera jadinii, 32 µg/mL (≈ 59.7 µM). The MIC in the experiment on Staphylococcus aureus [1] is 0.25 µg/mL (≈ 0.466 µM); with Bacillus subtilis, 0.5 µg/mL (≈ 0.933 µM); with Micrococcus luteus, 0.5 µg/mL (≈ 0.933 µM); with Staphylococcus aureus [4] it was 0.5 µg/mL (≈ 0.933 µM); in [5], 0.5 µg/mL (≈ 0.933 µM); with Escherichia coli, 1 µg/mL (≈ 1.87 µM). The MIC in experiment [8] turned out to be 0.5 µg/mL (≈ 0.933 µM); in the experiment on Pseudomonas aeruginosa [10], 0.25 µg/mL (≈ 0.466 µM). Moreover, the result (in [2]; in the experiment on Staphylococcus aureus [9]; in the experiment on Staphylococcus aureus [11]) was Active. Besides, the Ratio with Pseudomonas aeruginosa [3] is reported as 4; in the experiment on Pseudomonas aeruginosa [12], 64. Further, the Activity result with Staphylococcus aureus [6] was “Dose-dependent effect”.
Turning to `Sc1ncn(Cc2ccc(Cl)c(Cl)c2)n1`, the MIC80 in the experiment with Saccharomyces cerevisiae worked out at 512 µg/mL (≈ 1970 µM); in the experiment on Aspergillus flavus it was 512 µg/mL (≈ 1970 µM); in [7], 256 µg/mL (≈ 984 µM); in the experiment on Candida albicans it was 512 µg/mL (≈ 1970 µM); with Cyberlindnera jadinii, 512 µg/mL (≈ 1970 µM). The MIC in the experiment on Staphylococcus aureus [1] worked out at 128 µg/mL (≈ 492 µM); in the experiment on Bacillus subtilis it was 512 µg/mL (≈ 1970 µM); in the experiment with Micrococcus luteus, 256 µg/mL (≈ 984 µM); in the experiment with Staphylococcus aureus [4], 256 µg/mL (≈ 984 µM); in [5] it was 512 µg/mL (≈ 1970 µM); in the experiment on Escherichia coli, 256 µg/mL (≈ 984 µM). Also, the MIC (in experiment [8]; with Pseudomonas aeruginosa [10]) was 512 µg/mL (≈ 1970 µM) each time.
Turning to `CCn1cc(C(=O)O)c(=O)c2cc(F)c(N3CCN(CC(O)CSc4ncn(Cc5ccc(Cl)cc5Cl)n4)CC3)cc21` (configuration not stated), the MIC80 turned out to be 16 µg/mL (≈ 25.2 µM) in the experiment with Saccharomyces cerevisiae; 4 µg/mL (≈ 6.29 µM) with Aspergillus flavus; 64 µg/mL (≈ 101 µM) in experiment [7]; 64 µg/mL (≈ 101 µM) in the experiment on Candida albicans; 64 µg/mL (≈ 101 µM) with Cyberlindnera jadinii. The MIC in the experiment with Staphylococcus aureus [1] worked out at 2 µg/mL (≈ 3.15 µM); in the experiment with Bacillus subtilis, 64 µg/mL (≈ 101 µM); in the experiment on Micrococcus luteus it was 64 µg/mL (≈ 101 µM); in the experiment with Staphylococcus aureus [4] it was 2 µg/mL (≈ 3.15 µM); in [5], 4 µg/mL (≈ 6.29 µM); with Escherichia coli it was 8 µg/mL (≈ 12.6 µM). Further, the MIC in [8] came to 32 µg/mL (≈ 50.4 µM); in the experiment on Pseudomonas aeruginosa [10], 16 µg/mL (≈ 25.2 µM).
Consider `Sc1ncn(Cc2ccc(Cl)cc2Cl)n1`, for which the MIC80 came to 512 µg/mL (≈ 1970 µM) with Saccharomyces cerevisiae; 256 µg/mL (≈ 984 µM) with Aspergillus flavus; 128 µg/mL (≈ 492 µM) in experiment [7]; 512 µg/mL (≈ 1970 µM) in the experiment with Candida albicans; 512 µg/mL (≈ 1970 µM) with Cyberlindnera jadinii. Besides, the minimal inhibitory concentration (MIC) in the experiment on Staphylococcus aureus [1] is 128 µg/mL (≈ 492 µM); with Bacillus subtilis it was 512 µg/mL (≈ 1970 µM); in the experiment on Micrococcus luteus, 128 µg/mL (≈ 492 µM); with Staphylococcus aureus [4] it was 512 µg/mL (≈ 1970 µM); in experiment [5], 512 µg/mL (≈ 1970 µM); in the experiment on Escherichia coli it was 256 µg/mL (≈ 984 µM). Moreover, the MIC (in [8]; in the experiment on Pseudomonas aeruginosa [10]) was 256 µg/mL (≈ 984 µM) throughout.
In the case of `CCn1cc(C(=O)O)c(=O)c2cc(F)c(N3CCN(CC(O)Cn4cnc(S)n4)CC3)cc21` (configuration not stated), the MIC80 in the experiment on Saccharomyces cerevisiae worked out at 128 µg/mL (≈ 269 µM); with Aspergillus flavus, 512 µg/mL (≈ 1070 µM); in experiment [7], 128 µg/mL (≈ 269 µM); with Candida albicans, 128 µg/mL (≈ 269 µM); with Cyberlindnera jadinii it was 64 µg/mL (≈ 134 µM). The MIC in the experiment on Staphylococcus aureus [1] is 64 µg/mL (≈ 134 µM); in the experiment on Bacillus subtilis it was 128 µg/mL (≈ 269 µM); in the experiment on Micrococcus luteus, 64 µg/mL (≈ 134 µM); in the experiment on Staphylococcus aureus [4] it was 128 µg/mL (≈ 269 µM); in [5], 128 µg/mL (≈ 269 µM); with Escherichia coli, 64 µg/mL (≈ 134 µM). For the same molecule, the MIC (in experiment [8]; in the experiment with Pseudomonas aeruginosa [10]) was 64 µg/mL (≈ 134 µM) each time.
`Cn1ccnc1SCC(O)CN1CCN(c2cc3c(cc2F)c(=O)c(C(=O)O)cn3C2CC2)CC1` (configuration not stated): the MIC80 in the experiment with Saccharomyces cerevisiae worked out at 32 µg/mL (≈ 63.8 µM); with Aspergillus flavus, 64 µg/mL (≈ 128 µM); in experiment [7] it was 16 µg/mL (≈ 31.9 µM); in the experiment on Candida albicans, 4 µg/mL (≈ 7.97 µM); with Cyberlindnera jadinii it was 128 µg/mL (≈ 255 µM). In addition, the MIC with Staphylococcus aureus [1] turned out to be 2 µg/mL (≈ 3.99 µM); with Bacillus subtilis, 4 µg/mL (≈ 7.97 µM); with Micrococcus luteus, 4 µg/mL (≈ 7.97 µM); in the experiment on Staphylococcus aureus [4] it was 2 µg/mL (≈ 3.99 µM); in experiment [5] it was 2 µg/mL (≈ 3.99 µM); in the experiment on Escherichia coli, 8 µg/mL (≈ 15.9 µM). Also, the MIC in experiment [8] amounted to 1 µg/mL (≈ 1.99 µM); in the experiment with Pseudomonas aeruginosa [10], 8 µg/mL (≈ 15.9 µM).
On to `O=C(O)c1cn(C2CC2)c2c(Cl)c(N3CCC(NCC(O)Cn4cnc(S)n4)C3)c(F)cc2c1=O` (configuration not stated), for which the MIC80 amounted to 8 µg/mL (≈ 15.3 µM) with Saccharomyces cerevisiae; 8 µg/mL (≈ 15.3 µM) with Aspergillus flavus; 8 µg/mL (≈ 15.3 µM) in [7]; 2 µg/mL (≈ 3.82 µM) in the experiment with Candida albicans; 4 µg/mL (≈ 7.65 µM) with Cyberlindnera jadinii. Besides, the MIC in the experiment on Staphylococcus aureus [1] was found to be 4 µg/mL (≈ 7.65 µM); with Bacillus subtilis, 0.5 µg/mL (≈ 0.956 µM); in the experiment with Micrococcus luteus it was 2 µg/mL (≈ 3.82 µM); in the experiment on Staphylococcus aureus [4], 0.5 µg/mL (≈ 0.956 µM); in experiment [5], 1 µg/mL (≈ 1.91 µM); in the experiment on Escherichia coli, 1 µg/mL (≈ 1.91 µM). Moreover, the MIC worked out at 0.5 µg/mL (≈ 0.956 µM) in experiment [8] and 4 µg/mL (≈ 7.65 µM) in the experiment with Pseudomonas aeruginosa [10].
